Test results reported in patent publication US20090221559A1 (priority 2005, published 2009).
Where two headings read alike, the source gives them in different places.

Key:
[1] = target: T1, HCV NS5B polymerase (His-tagged, C-terminal 21 amino acid deleted NS5B, HC-J4) (Hepatitis C virus genotype 1b, UniProt O92972); test: NS5b polymerase assay (biochemical RdRp assay, 3H-GTP incorporation, SPA beads); set-up: species or system HCV genotype 1b
T1 construct: The cDNA encoding NS5B amino acid 1-570 (HC-J4, genotype 1b); His tag (His6, from pET-21b) (C); made in house; host or cells: E. coli BL21 (DE3)
Experimental: (§1) The compounds of formula (I) were tested for anti-HCV activity in an assay determining their activity against NS5b polymerase and in an HCV replicon assay
The cDNA encoding NS5B amino acid 1-570 (HC-J4, genotype 1b, pCV-J4L6S, genebank accession number AF054247) was subcloned into the Nhe I and Xho I restriction sites of pET-21b. Expression of the subsequent His-tagged C-terminal 21 amino acid deleted NS5B was performed as follows:
Following transformation in BL21 (DE3) competent cells, bacterial cells were grown in 22 liter LB/Amp media until to reach OD600=0.4-0.6. Protein expression was induced by addition of IPTG 0.4 mM, supplemented with 10 μM MgCl2, and incubated for 14-16 hrs at 20° C. Cells were harvested, resuspended in lysis buffer (20 mM Tris-HCl pH=7.5, 0.3 M NaCl, 10% glycerol, 0.1% NP40, 4 mM MgCl2, 14 mM beta-mercaptoethanol, with tablet of EDTA-free protease cocktail inhibitors) and lysed by sonification. The cell lysate was cleared by high-speed centrifugation (20K×g for 30 min), captured on Ni-NTA beads for 70 min at 4° C., and eluted with 25 mM Hepes pH 7.5, 0.5 M NaCl, 10% glycerol, 14 mM BME, 500 mM imidazole. The eluent was dialysed against 25 mM Hepes pH 7.5, 10% glycerol, 50 mM NaCl, 14 mM BME, after which the protein was further purified by heparin chromatography using the same buffer with 1 M NaCl for elution. Fractions containing pure protein were collected, dialyzed against storage buffer 25 mM Hepes pH=7.5, 300 mM NaCl, 10% glycerol, 14 mM BME), and flash-freezed in liquid nitrogen.
Measurement of HCV NS5B polymerization activity was performed by evaluating the amount of radiolabeled GTP incorporated by the enzyme in a newly synthesized RNA using heteropolymeric RNA template/primer. The highthroughput RdRp assay was carried out in 384-well plates using 200 nM enzyme, 0.1 μCi of ^3H GTP, 5 mM MgCl2, 600 nM GTP, 30 nM PolyC, 300 nM 5′-biotinylated oligo(rG13)/poly(rC) in 20 mM Tris pH 7.5, 21 mM KCl, 2.5 mM DTT, 16.7 mM NaCl and 0.17 mM EDTA. Test compounds were dissolved in dimethylsulfoxide. The test compounds were added to the preformed polymerase-template complex, and incubated at room temperature (RT) for 15 min before the addition of NTPs. The 30-μl reaction was terminated after 2 h at 25° C. upon addition of 30-μl PVT-SPA beads (Amersham Biosciences RPNQ0009, 5 mg/ml in 0.5 M EDTA).

[2] = tested on: HCV replicon RNA replication in Huh-7 luc/neo (Huh-Luc) cells; test: HCV replicon assay (stable replicon cell reporter assay, luciferase read-out); type: cell-based, HCV type 1b
Experimental: as §1
The compounds of the present invention were examined for activity in the inhibition of HCV RNA replication in a cellular assay. […] The cellular assay was based on a bicistronic expression construct, as described by Lohmann et al. (1999) Science vol. 285 pp. 110-113 with modifications described by Krieger et al. (2001) Journal of Virology 75: 4614-4624, in a multi-target screening strategy. In essence, the method was as follows.
The assay utilized the stably transfected cell line Huh-7 luc/neo (hereafter referred to as Huh-Luc). This cell line harbored an RNA encoding a bicistronic expression construct comprising the wild type NS3-NS5B regions of HCV type 1b translated from an Internal Ribosome Entry Site (IRES) from encephalomyocarditis virus (EMCV), preceded by a reporter portion (FfL-luciferase), and a selectable marker portion (neo^R, neomycine phosphotransferase). The construct was bordered by 5′ and 3′ NTRs (non-translated regions) from HCV type 1b. Continued culture of the replicon cells in the presence of G418 (neo^R) was dependent on the replication of the HCV RNA. The stably transfected replicon cells that expressed HCV RNA, which replicated autonomously and to high levels, encoding inter alia luciferase, were used for screening the antiviral compounds.
The replicon cells were plated in 384 well plates in the presence of the test and control compounds which were added in various concentrations. Following an incubation of three days, HCV replication was measured by assaying luciferase activity (using standard luciferase assay substrates and reagents and a Perkin Elmer ViewLux™ ultraHTS microplate imager). […] The inhibitory activity of the compound on luciferase activity was monitored on the Huh-Luc cells, enabling a dose-response curve for each test compound.

[3] = 200 nM enzyme, 3H-GTP incorporation, 2 h at 25° C., read-out: NS5B Polymerase Assay IC50
[4] = Huh-Luc cells, three days incubation, luciferase activity, read-out: Replicon Assay EC50
[5] = NS5B Polymerase Assay IC50 (μM)
[6] = Hepatitis C virus, Huh-7, 72 h, read-out: Replicon Assay EC50 (μM), Huh-Luc cells, incubation of three days, luciferase activity
[7] = NS5B Polymerase Assay IC50, 200 nM enzyme, 3H-GTP incorporation, 2 h at 25° C.
[8] = Hepatitis C virus, Huh-7, 72 h, read-out: Replicon Assay EC50, Huh-Luc cells, three days incubation, luciferase activity

T1 sequence (O92972 2417-3000, looked up, stated change not applied): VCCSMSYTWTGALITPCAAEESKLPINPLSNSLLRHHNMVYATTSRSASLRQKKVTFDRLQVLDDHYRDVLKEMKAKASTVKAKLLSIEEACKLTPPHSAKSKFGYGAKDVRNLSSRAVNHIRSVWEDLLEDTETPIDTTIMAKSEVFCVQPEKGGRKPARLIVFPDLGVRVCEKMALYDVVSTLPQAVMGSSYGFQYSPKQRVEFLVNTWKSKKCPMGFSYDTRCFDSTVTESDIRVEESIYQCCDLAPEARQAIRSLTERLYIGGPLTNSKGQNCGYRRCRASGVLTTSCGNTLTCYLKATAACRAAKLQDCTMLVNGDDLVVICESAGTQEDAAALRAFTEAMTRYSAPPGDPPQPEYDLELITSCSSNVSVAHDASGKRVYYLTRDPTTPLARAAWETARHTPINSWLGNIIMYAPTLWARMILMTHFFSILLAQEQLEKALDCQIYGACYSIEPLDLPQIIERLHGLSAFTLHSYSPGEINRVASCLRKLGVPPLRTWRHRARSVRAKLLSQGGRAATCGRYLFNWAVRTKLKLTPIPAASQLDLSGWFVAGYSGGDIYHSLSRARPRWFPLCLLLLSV

Row | Structure (SMILES) | IC50 [1, 5] [µM] | EC50 [2, 6] [µM] | IC50 [1, 7] [µM] | EC50 [2, 8] [µM] | other results
1 | CCOc1ccccc1C1CC(=O)C2=C(C1)Nc1ccccc1N(C(=O)C(F)(F)F)C2c1ccc(OC)cc1 (centres unmarked) [compound 173] |  |  |  |  | IC50 [1, 3]: > 42.7 µM; EC50 [2, 4]: 0.208 µM
2 | O=C1CC(c2ccccc2)CC2=C1C(c1ccccc1OCc1ccccc1)Nc1ccccc1N2 (centres unmarked) [compound 365] | 27.3 | 5.24 |  |  | 
3 | COc1ccc(C2CC(=O)C3=C(C2)Nc2ccccc2N(C(C)=O)C3c2cccc(Cl)c2)cc1OC (mixture of isomers) [compound 198] |  |  |  |  | IC50 [1, 3]: > 33.3 µM; EC50 [2, 4]: 9.22 µM
4 | CC1(C)CC(=O)C2=C(C1)Nc1ccccc1NC2c1cccc(Oc2ccccc2Br)c1 (centres unmarked) [compound 446, 11-[3-(2-bromophenoxy)phenyl]-3,3-dimethyl-2,3,4,5,10,11-hexahydro-1H-dibenzo[b,e][1,4]diazepin-1-one] | > 133 | 4.12 |  |  | 
5 | COc1ccc(C2CC(=O)C3=C(C2)Nc2ccccc2NC3c2cccc(F)c2)cc1 (centres unmarked) [compound 327] | > 33.3 | 12.5 |  |  | 
6 | CC1(C)CC(=O)C2=C(C1)Nc1cc(Cl)c(Cl)cc1NC2c1ccc(Cl)cc1Cl (centres unmarked) [compound 465, 7,8-Dichloro-11-(2,4-dichlorophenyl)-2,3,4,5,10,11-hexahydro-3,3-dimethyl-1H-dibenzo[b,e][1,4]diazepin-1-one] | 60 | 3.84 |  |  | 
7 | Cc1cccc(C2Nc3ccccc3NC3=C2C(=O)CC(c2ccccc2)C3)c1 (centres unmarked) [compound 354] | > 42.7 | 20.5 |  |  | 
8 | CCCCOc1cccc(C2C3=C(CC(C)(C)CC3=O)Nc3ccccc3N2C(C)=O)c1 (centres unmarked) [compound 79] |  |  | > 42.7 | 31.3 | 
9 | CCCCCC(=O)N1c2ccccc2NC2=C(C(=O)CC(c3cccc([N+](=O)[O-])c3)C2)C1c1ccc(OC)cc1 (centres unmarked) [compound 168] |  |  |  |  | IC50 [1, 3]: > 42.7 µM; EC50 [2, 4]: 3.61 µM
10 | CC(=O)N1c2ccccc2NC2=C(C(=O)CC(c3ccccc3OCc3ccccc3)C2)C1c1ccc(Cl)cc1Cl (single isomer, unassigned) [compound 186, 10-Acetyl-3-(2-benzyloxyphenyl)-11-(2,4-dichlorophenyl)-2,3,4,5,10,11-hexahydro-dibenzo[b,e][1,4]diazepin-1-one] |  |  | 40.9 | 2.03 | 
11 | CC1(C)CC(=O)C2=C(C1)Nc1ccccc1N(C(=O)Cc1ccccc1)C2c1cc2c(cc1Br)OCO2 (centres unmarked) [compound 268] |  |  | > 42.7 | 9.04 | 
12 | CC(=O)N1c2ccccc2NC2=C(C(=O)CC(C)(C)C2)C1c1cccc(F)c1 (centres unmarked) [compound 104] |  |  | > 42.7 | > 32 | 
13 | O=C1C[C@@H](c2ccc3c(c2)OCO3)CC2=C1[C@H](c1ccc3c(c1)OCO3)Nc1ccccc1N2 [compound 492] | > 42.7 | 11 |  |  | 
14 | CC1(C)CC(=O)C2=C(C1)Nc1ccccc1N(C(=O)C(F)(F)F)C2c1cccc(Cl)c1Cl (centres unmarked) [compound 25] |  |  | > 42.7 | 24.6 | 
15 | CCC(=O)N1c2ccccc2NC2=C(C(=O)CC(C)(C)C2)C1c1ccccc1OCc1ccccc1 (centres unmarked) [compound 11] |  |  | > 42.7 | 14.7 | 
16 | CCn1c2ccccc2c2cc(C3Nc4ccccc4NC4=C3C(=O)CC(C)(C)C4)ccc21 (centres unmarked) [compound 501] | > 42.7 | 19.8 |  |  | 
17 | CC(=O)N1c2ccccc2NC2=C(C(=O)CC(C)(C)C2)C1c1ccccc1Cl (centres unmarked) [compound 112] |  |  | > 42.7 | > 32 | 

Row | Structure (SMILES) | IC50 [1, 5] [µM] | EC50 [2, 6] [µM] | IC50 [1, 7] [µM] | EC50 [2, 8] [µM] | other results
18 | CN(C)c1ccc(C2C3=C(CC(C)(C)CC3=O)Nc3ccccc3N2C(=O)Nc2ccc(Cl)c(Cl)c2)cc1 (centres unmarked) [compound 76] |  |  | > 33.3 | 6.27 | 
19 | CC1(C)CC(=O)C2=C(C1)Nc1ccccc1NC2c1cc(Cl)cc(Cl)c1 (centres unmarked) [compound 436, 11-[3,5-dichlorophenyl]-3,3-dimethyl-2,3,4,5,10,11-hexahydro-1H-dibenzo[b,e][1,4]diazepin-1-one] | > 133 | 19.7 |  |  | 
20 | CC(=O)N1c2ccccc2NC2=C(C(=O)CC(c3ccccc3OCc3ccccc3)C2)C1c1cccc(OC(=O)c2ccc(Cl)cc2)c1 (single isomer, unassigned) [compound 192, 10-Acetyl-3-(2-benzyloxyphenyl)-11-[3-(4-chlorobenzoyloxy)phenyl]-2,3,4,5,10,11-hexahydro-dibenzo[b,e][1,4]diazepin-1-one] |  |  |  |  | IC50 ([1]; read-out: NS5B Polymerase Assay IC50, 200 nM enzyme, 3H-GTP incorporation, 2 h at 25° C.): > 42.7 µM; EC50 ([2]; read-out: Replicon Assay EC50, Huh-Luc cells, three days incubation, luciferase activity): 4.87 µM
21 | O=C1CC(c2ccc(Cl)cc2)CC2=C1C(c1cccc(Cl)c1)Nc1ccccc1N2 (centres unmarked) [compound 350] | 25.1 | 5.21 |  |  | 
22 | CSc1ccc(C2Nc3ccccc3NC3=C2C(=O)CC(c2ccccc2)C3)cc1 (centres unmarked) [compound 362] | 30.6 | 19.3 |  |  | 
23 | O=C1CC(c2ccccc2)CC2=C1C(c1ccccc1Br)Nc1ccccc1N2 (centres unmarked) [compound 345] | > 42.7 | 21 |  |  | 
24 | CCCCC(=O)N1c2ccccc2NC2=C(C(=O)CC(C)(C)C2)C1c1ccc(Cl)cc1 (centres unmarked) [compound 7] |  |  | > 42.7 | 8.31 | 
25 | COc1cc(C2Nc3ccccc3NC3=C2C(=O)CC(c2ccc(Cl)cc2)C3)cc(Br)c1O (centres unmarked) [compound 342] | > 42.7 | 4.19 |  |  | 
26 | CC(=O)N1c2ccccc2NC2=C(C(=O)CC(C)(C)C2)C1c1cccc(Cl)c1Cl (centres unmarked) [compound 29] |  |  | > 42.7 | 6.79 | 
27 | COc1ccc(OC)c(C2C3=C(CC(C)(C)CC3=O)Nc3ccccc3N2C(C)=O)c1 (centres unmarked) [compound 118] |  |  | > 42.7 | > 32 | 
28 | Cc1ccc(C2CC(=O)C3=C(C2)Nc2ccccc2NC3c2ccccc2)cc1 (centres unmarked) [compound 414] | > 33.3 | 13.6 |  |  | 
29 | CCCCCOc1ccc(C2C3=C(CC(C)(C)CC3=O)Nc3ccccc3N2C(C)=O)cc1 (centres unmarked) [compound 102] |  |  | > 42.7 | > 32 | 
30 | O=C1CC(c2ccccc2OCc2ccccc2)CC2=C1C(C(Br)=Cc1ccccc1)Nc1ccccc1N2 (mixture of isomers) [compound 497] | > 133 | 3.79 |  |  | 
31 | CC1(C)CC(=O)C2=C(C1)Nc1ccccc1N(C(=O)C(F)(F)F)C2c1ccc2c(c1)OCO2 (centres unmarked) [compound 266] |  |  | > 42.7 | 24 | 
32 | CC1(C)CC(=O)C2=C(C1)Nc1ccccc1N(C(=O)Cc1ccccc1)C2c1ccc(Cl)cc1 (centres unmarked) [compound 20] |  |  | > 42.6 | 6.58 | 
33 | COc1ccc([C@@H]2CC(=O)C3=C(C2)Nc2ccccc2N[C@H]3c2cccc3ccccc23)cc1OC [compound 496] | > 42.7 | 22.9 |  |  | 
34 | CCCCC(=O)N1c2ccccc2NC2=C(C(=O)CC(C)(C)C2)C1c1ccc(Cl)cc1Cl (centres unmarked) [compound 17] |  |  | > 42.7 | 6.59 | 
